In US20240343699A1, “DERIVATIVES OF SUBSTITUTED MORPHOLINES AND USES THEREOF” (Supernus Pharmaceuticals, Inc., priority 2023, published 2024):
“And” between values parts separate entries of the source, which are not always exact repeats. Identical values can stand only once. Like-named read-outs stand apart in the source and are kept apart here.

Key:
[1] = Metabolic stability in dog liver S9; format: in vitro ADME, Beagle dog; settings: for half-life at 1 μM / microsomal CLint at 1 μM: pH 7.2
Protocol: Incubation Buffer (PBK): 50 mM potassium phosphate buffer was prepared from 1 M potassium phosphate buffer, pH 7.2. […] The dilution of […] was prepared by 90% methanol/10% DMSO, then 10 μM working solutions were prepared by diluting the 0.1 mM intermediates with 50 mM PBK. […] Prior to use, the stock solutions were brought to room temperature and thoroughly mixed. […] Cofactors Solutions: the mixture of cofactors solution was made at 10 mM of NADPH and 10 mM of UDPGA in PBK buffer.
The incubation was carried out in 96-well plates. The liver S9 working solutions were added to 96-well plates (80 μL/well) in duplicate. […] Reaction was initiated by adding cofactor mixture 10 μL/well. The plates were incubated at 37° C. in a water bath with shaking. […] The final organic solvent content in the incubation was ≤1%.
At specified time points, i.e., 5, 10, 20, 30 and 60 minutes, NCF60 (without adding NADPH (Nicotinamide-adenine dinucleotide phosphate, reduced form) and UDPGA (Uridine 5′-diphosphoglucuronic acid trisodium salt) replaced with PBK buffer reaction was stopped by adding three volumes of stop solution. The time zero (To) samples were prepared by adding three volumes of stop solution to liver S9 samples, followed by addition of test article or control, and cofactor mixture solution 10 μL/well.
Subsequently, 100 μL of supernatant.
Positive controls: 7-ethoxycoumarin and 7-hydroxycoumarin.

Enzyme and uptake assays = format: biochemical; settings: human recombinant; [3H]NE incorporation into cells; read-out: IC50, Norepinephrine transporter uptake (h)
Protocol: A study was conducted to test 5 compounds in cellular and nuclear receptor functional and enzyme and uptake assays.
The results are expressed as a percent of control specific activity
and as a percent inhibition of control specific activity
The IC50 values (concentration causing a half-maximal inhibition of control specific activity), EC50 values (concentration producing a half-maximal increase in control basal activity), and Hill coefficients (nH) were determined by non-linear regression analysis of the inhibition/concentration-response curves generated with mean replicate values using Hill equation curve fitting
where Y=specific activity, A=left asymptote of the curve, D=right asymptote of the curve, C=compound concentration, C50=IC50 or EC50, and nH=slope factor. This analysis was performed using software developed at Cerep (Hill software) and validated by comparison with data generated by the commercial software SigmaPlot® 4.0 for Windows® (© 1997 by SPSS Inc.).
In Vitro Pharmacology. Results showing an inhibition (or stimulation for assays run in basal conditions) higher than 50% were considered to represent significant effects of the test compounds. Results showing an inhibition (or stimulation) between 25% and 50% are indicative of weak to moderate effects. Results showing an inhibition (or stimulation) lower than 25% were not considered significant and mostly attributable to variability of the signal around the control level. […]

hNav1.5 = target: T1, hNav1.5 (Homo sapiens, UniProt Q14524); experiment: Nav1.5 human sodium ion channel cell based automated patch clamp assay (QPatch HT); settings: Antagonist
T1 construct: CYL6004QP2DR
Protocol: Electrophysiological assays were conducted to profile five compounds for activities on the ion channel target using the QPatch HT electrophysiological platform.
CYL6004QP2DR Nav1.5 Human Sodium Ion Channel Cell Based Automated Patch Clamp Assay. Cells were held at −120 mV for 100 ms, stepped to −130 mV for 100 ms, and stepped back to −120 mV for 100 ms to measure the leak current. Na channels exist in a) resting or closed state at −120 mV, b) a transient open state that inactivates to c) inactivated state at −10 mV. Na current inhibition within 1-2 ms of channel opening at −10 mV is open channel inhibition (pulse 1). […] Pulse 1 and 2 are used to investigate drug binding to the open state and inactivated state of the Na channels, respectively. Each concentration of compound was applied for 5 minutes.
Current amplitudes more than 200 pA at the control stage were analyzed. The amplitude of the current was calculated by measuring the difference between the peak inward current on stepping to −10 mV (i.e. peak of the current) and remaining current at the end of the step. The current was assessed in vehicle control conditions and then at the end of each five (5) minute compound application.

[2] = Preclinical PK: plasma viloxazine after PO dosing of COMPOUND D or COMPOUND E; format: in vivo, mouse; settings: individual mice
Protocol: A study was conducted for preclinical PK performance of COMPOUND D and COMPOUND E. Please see below for details on the study, with fasted mice orally dosed with COMPOUND D or COMPOUND E.
Relevant data are summarized in below tables (ND=Not determined (Parameters not determined due to inadequately defined terminal elimination phase. BQL=Below the lower limit of quantitation (LLOQ). If the adjusted rsq (linear regression coefficient of the concentration value on the terminal phase) is less than 0.9, T1/2 might not be accurately estimated. If the % AUCExtra>20%, AUC0-inf, Cl, MRT0-inf and Vdss might not be accurately estimated. If the % AUMCExtra>20%, MRT0-inf and Vdss might not be accurately estimated. a: Bioavailability (%) was calculated using AUC0-inf (% AUCExtra<20%) or AUC0-last (% AUCExtra>20%) with nominal dose)

[3] = Beagle, dog liver S9, 1 μM, read-out: CLint(LS9)
[4] = dog liver S9, 1 μM, NCF60 (no cofactors, 60 min)
[5] = Pulse 1 (open state), read-out: Estimated IC50 (Pulse 1)
[6] = Pulse 2 (inactivated state), read-out: Estimated IC50 (Pulse 2)
[7] = 1 μM in Beagle Dog liver S9 fractions
[8] = 1 μM in Beagle Dog liver S9 fractions, read-out: CLint(mic.)

T1 sequence (Q14524 whole entry): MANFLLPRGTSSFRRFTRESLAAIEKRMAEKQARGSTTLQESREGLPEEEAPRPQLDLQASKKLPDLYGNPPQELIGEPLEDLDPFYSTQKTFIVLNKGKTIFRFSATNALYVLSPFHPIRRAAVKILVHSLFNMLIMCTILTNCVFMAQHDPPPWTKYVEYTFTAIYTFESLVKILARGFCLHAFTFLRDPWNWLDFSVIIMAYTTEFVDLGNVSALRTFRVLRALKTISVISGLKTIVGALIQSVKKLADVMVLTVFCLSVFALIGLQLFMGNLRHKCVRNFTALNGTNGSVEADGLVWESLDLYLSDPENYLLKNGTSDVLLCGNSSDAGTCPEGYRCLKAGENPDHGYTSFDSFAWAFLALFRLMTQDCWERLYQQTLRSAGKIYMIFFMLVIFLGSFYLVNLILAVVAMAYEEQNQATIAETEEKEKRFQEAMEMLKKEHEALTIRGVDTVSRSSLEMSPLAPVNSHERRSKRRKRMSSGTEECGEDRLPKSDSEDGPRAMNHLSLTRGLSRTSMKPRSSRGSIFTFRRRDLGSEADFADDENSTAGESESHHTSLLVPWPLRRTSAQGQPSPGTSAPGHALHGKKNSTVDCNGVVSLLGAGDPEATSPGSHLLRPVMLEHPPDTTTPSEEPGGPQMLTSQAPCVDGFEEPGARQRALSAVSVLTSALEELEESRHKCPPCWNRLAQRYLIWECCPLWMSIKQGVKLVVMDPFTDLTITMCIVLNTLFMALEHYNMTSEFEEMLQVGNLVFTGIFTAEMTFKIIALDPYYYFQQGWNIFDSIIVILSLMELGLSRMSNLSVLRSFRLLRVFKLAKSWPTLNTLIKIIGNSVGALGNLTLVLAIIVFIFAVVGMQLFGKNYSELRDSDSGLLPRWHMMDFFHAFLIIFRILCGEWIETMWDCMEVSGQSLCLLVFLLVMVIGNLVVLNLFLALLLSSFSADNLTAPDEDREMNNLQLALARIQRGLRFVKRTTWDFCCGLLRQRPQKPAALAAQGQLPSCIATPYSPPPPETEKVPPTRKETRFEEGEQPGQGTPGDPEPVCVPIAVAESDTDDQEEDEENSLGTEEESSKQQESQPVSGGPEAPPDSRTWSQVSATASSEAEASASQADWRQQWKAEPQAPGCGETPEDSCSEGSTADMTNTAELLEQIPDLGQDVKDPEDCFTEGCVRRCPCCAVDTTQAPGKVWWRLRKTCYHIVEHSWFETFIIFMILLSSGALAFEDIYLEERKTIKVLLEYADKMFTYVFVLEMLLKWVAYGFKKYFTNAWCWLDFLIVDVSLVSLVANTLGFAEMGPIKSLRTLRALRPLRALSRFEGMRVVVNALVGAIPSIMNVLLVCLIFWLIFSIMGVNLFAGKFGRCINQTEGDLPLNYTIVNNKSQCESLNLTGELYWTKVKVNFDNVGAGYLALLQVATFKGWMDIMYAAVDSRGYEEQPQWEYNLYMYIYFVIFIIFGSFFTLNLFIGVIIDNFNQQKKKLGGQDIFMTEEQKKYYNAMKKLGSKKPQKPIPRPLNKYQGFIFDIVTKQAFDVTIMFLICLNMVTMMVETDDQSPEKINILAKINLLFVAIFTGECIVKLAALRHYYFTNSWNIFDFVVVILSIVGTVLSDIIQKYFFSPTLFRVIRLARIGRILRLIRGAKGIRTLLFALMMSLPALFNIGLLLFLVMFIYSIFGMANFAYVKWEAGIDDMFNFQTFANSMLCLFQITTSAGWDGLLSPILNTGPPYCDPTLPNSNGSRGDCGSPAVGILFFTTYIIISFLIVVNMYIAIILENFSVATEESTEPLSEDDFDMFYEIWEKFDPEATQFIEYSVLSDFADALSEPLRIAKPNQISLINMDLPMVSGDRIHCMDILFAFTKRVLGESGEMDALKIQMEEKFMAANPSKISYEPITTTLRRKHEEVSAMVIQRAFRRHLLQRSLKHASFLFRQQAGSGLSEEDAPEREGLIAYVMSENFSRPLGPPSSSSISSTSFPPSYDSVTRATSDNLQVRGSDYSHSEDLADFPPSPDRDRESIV

Row | Compound | half-life at 1 μM ([1]; Beagle, dog liver S9, 1 μM) [min] | microsomal CLint at 1 μM [1, 3] [µL/min/mg] | % Remaining ([1]; dog liver S9, 1 μM, 0 min) [%] | Analyte Peak area/IS Peak area Mean × 100 (n = 2) ([1]; dog liver S9, 1 μM, 0 min) | % Remaining ([1]; dog liver S9, 1 μM, 5 min) [%] | Analyte Peak area/IS Peak area Mean × 100 (n = 2) ([1]; dog liver S9, 1 μM, 5 min) | % Remaining ([1]; dog liver S9, 1 μM, 10 min) [%] | Analyte Peak area/IS Peak area Mean × 100 (n = 2) ([1]; dog liver S9, 1 μM, 10 min) | % Remaining ([1]; dog liver S9, 1 μM, 20 min) [%] | Analyte Peak area/IS Peak area Mean × 100 (n = 2) ([1]; dog liver S9, 1 μM, 20 min) | % Remaining ([1]; dog liver S9, 1 μM, 30 min) [%] | Analyte Peak area/IS Peak area Mean × 100 (n = 2) ([1]; dog liver S9, 1 μM, 30 min) | % Remaining ([1]; dog liver S9, 1 μM, 60 min) | Analyte Peak area/IS Peak area Mean × 100 (n = 2) ([1]; dog liver S9, 1 μM, 60 min) | % Remaining [1, 4] [%] | Analyte Peak area/IS Peak area Mean × 100 (n = 2) [1, 4] | IC50 (Enzyme and uptake assays) [µM] | IC50 (hNav1.5; [5]) [µM] | IC50 (hNav1.5; [6]) [µM] | % Remaining at 60 min [1, 7] [%] | other results
1 | CCOc1ccccc1OC[C@@H]1CN(C(=O)OC(C)OC(=O)[C@@H](N)C(C)C)CCO1 (stereo partly shown) [COMPOUND A] | 11 | 126 | 100 | 12.2 | 8.0 | 0.98 | 8.8 | 1.078 | 5.2 | 0.635 | 3.1 | 0.381 | 0.8% | 0.097 | 2.0 | 0.248 | 0.39 | > 100 | 19.6 | – | –
2 | CCOc1ccccc1OCC1CN(C(=O)OC(OC(=O)[C@@H](N)C(C)C)C(C)C)CCO1 (stereo partly shown) [COMPOUND E] | – | – | – | – | – | – | – | – | – | – | – | – | – | – | – | – | 2.6 | 92.6 | 5.7 | 0.25 | half-life at 1 μM [1, 7]: 8.3 min; microsomal CLint at 1 μM [1, 8]: 167 µL/min/mg; Plasma concentration of Viloxazine ([2]; COMPOUND E PO 20.99 mg/kg, 8.00 h): BQL; Plasma concentration of Viloxazine ([2]; COMPOUND E PO 20.99 mg/kg, 24.0 h): BQL
3 | CCOc1ccccc1OC[C@@H]1CN(C(=O)OC(OC(=O)[C@@H](N)C(C)C)C(C)C)CCO1 (stereo partly shown) [COMPOUND B] | 7.3 | 190 | 100 | 7.78 | 2.9 | 0.226 | 4.0 | 0.309 | 2.1 | 0.166 | 0.5 | 0.035 | 0.09% and 0.1% | 0.007 | 0.0 | 0.000 | 1.9 | > 100 | 7.6 | – | –
4 | CCOc1ccccc1OC[C@@H]1CN(C(=O)OC(OC(=O)[C@H](N)C(C)C)C(C)C)CCO1 (stereo partly shown) [COMPOUND C] | 12 | 115 | 100 | 8.27 | 17 | 1.44 | 12 | 0.962 | 8.7 | 0.720 | 6.1 | 0.501 | 1.41% and 1.4% | 0.116 | 5.1 | 0.418 | 1.8 | > 100 | 8.5 | – | –
5 | CCOc1ccccc1OCC1CN(C(=O)OC(C)OC(=O)[C@H](N)C(C)C)CCO1 (stereo partly shown) [COMPOUND D] | – | – | – | – | – | – | – | – | – | – | – | – | – | – | – | – | 0.87 | > 100 | 14.1 | 3.10 | half-life at 1 μM [1, 7]: 12.6 min; microsomal CLint at 1 μM [1, 8]: 110 µL/min/mg; Plasma concentration of Viloxazine ([2]; COMPOUND D PO 19.74 mg/kg, 8.00 h): BQL; Plasma concentration of Viloxazine ([2]; COMPOUND D PO 19.74 mg/kg, 24.0 h): BQL
